Consider 5 compounds from patent US20120189547A1 (priority 2009, published 2012).

The Ki is a dissociation constant, usually derived from enzyme kinetics or from competition with a known ligand.

Molecules are shown by their SMILES.

One data set has as its system GABAA receptor. The note with it: cited from earlier work.
For data set [1] the following is noted: cited from earlier work.
The nature of data set [2]: In vivo biodistribution in naive male Sprague-Dawley rats. As to conditions: rat; for Time at which regional differentiation remained apparent / Pituitary gland / Thalamus: male, Sprague-Dawley; for Time at which regional differentiation remained apparent / Pituitary gland / Thalamus / Clearance from whole brain after peak uptake: in vivo; for Whole brain uptake, peak: at the time of peak; for Regional differentiation between GABA-rich and GABA-poor regions of the brain: in vivo biodistribution; for Cerebellum / Hippocampus / Pons/Medulla / Pre-frontal cortex / Striatum: lateral tail vein, mean (SD), n = 3; for Pre-frontal cortex: thalmus: ratio. The protocol:
Adult male Sprague-Dawley rats (body weight 202±37 g; mean±SD) were injected with between 1 and 5 MBq of [^18F]-Compound 1 via a lateral tail vein. All animals were conscious, but lightly restrained during injection and subsequently housed in short-term metabolism cages. At the appropriate time point; 30 seconds, 2, 10, 30 and 60 minutes post-injection (pi) (n=3 per time point), the animals were sacrificed by cervical dislocation. The brain and peripheral tissues or fluids were sampled post-mortem. Radioactivity in the brain samples was measured using a Wallac gamma counter. Once assayed, the brain samples, along with the remaining organ or tissue samples were assayed using a twin-crystal gamma-counter system (BASIL), with automatic correction for radioactive decay.
The biodistribution protocol described in Example 6 for Compound 1 was used to assess Compound 2.

For the compound `CN1Cc2c(C(=O)OCC[18F])ncn2-c2ccc(F)cc2C1=O` [[18F]FFMZ, [18F]fluoroflumazenil], the “Selective binding to GABAA receptors” value with GABAA receptor (reported in prior art) is given as “high selective binding”. The Brain uptake result in data set [1] (reported in prior art) was “high”.
For `CCOC(=O)c1ncn2c1CN(C)C(=O)c1cc([18F])ccc1-2` [[18F]FMZ, [18F]flumazenil], the inhibitory constant (Ki) on GABAA receptor (prior art statement) is ~0.5 nM.
Consider `CN1Cc2c(C(=O)OC(C)(C)C)ncn2-c2ccc(OCC[18F])cc2C1=O` [[18F]-Compound 2], for which, in data set [2], the “Time at which regional differentiation remained apparent” value was 10 minutes pi; the “Time of peak whole brain uptake” value came to 2 minutes pi; the “Whole brain uptake, peak” value stood at 0.82%; the “Clearance from whole brain after peak uptake” value was “slow with a decreasing rate”. Moreover, in data set [2], the “Regional differentiation between GABA-rich and GABA-poor regions of the brain” value was “good”. Further, in data set [2] (0.5 min), the Pituitary gland is listed as 0.82 (0.21) % id/g and the Thalamus was 0.67 (0.12) % id/g. For the same compound, in data set [2] (2 min), the Pituitary gland is recorded as 1.07 (0.19) % id/g and the Thalamus is recorded as 0.78 (0.20) % id/g. Besides, in data set [2] (10 min), the Pituitary gland is given as 0.69 (0.11) % id/g and the Thalamus was 0.69 (0.12) % id/g. Besides, in data set [2] (30 min), the Pituitary gland is 0.64 (0.04) % id/g and the Thalamus is listed as 0.62 (0.12) % id/g. For the same compound, in data set [2] (60 min), the Pituitary gland was 0.51 (0.04) % id/g and the Thalamus is 0.49 (0.02) % id/g. Further, in data set [2] (0.5 min post-injection), the Cerebellum was 0.75 (0.10) % id/g, the Hippocampus is given as 0.63 (0.08) % id/g, the Pons/Medulla is 0.58 (0.09) % id/g and the Pre-frontal cortex is recorded as 0.80 (0.05) % id/g. For the same compound, in data set [2] (0.5 min post-injection), the Striatum is recorded as 0.63 (0.05) % id/g and the “Pre-frontal cortex: thalmus” value was found to be 1.22. Also, in data set [2] (2 min post-injection), the Cerebellum was 0.82 (0.19) % id/g, the Hippocampus is listed as 0.89 (0.20) % id/g, the Pons/Medulla is on record as 0.61 (0.14) % id/g and the Pre-frontal cortex is listed as 1.07 (0.29) % id/g. Moreover, in data set [2] (2 min post-injection), the Striatum is 0.71 (0.16) % id/g and the “Pre-frontal cortex: thalmus” value was 1.36. In data set [2] (10 min post-injection), the Cerebellum is given as 0.74 (0.08) % id/g, the Hippocampus is given as 0.94 (0.06) % id/g, the Pons/Medulla was 0.56 (0.09) % id/g and the Pre-frontal cortex is on record as 1.04 (0.15) % id/g. Also, in data set [2] (10 min post-injection), the Striatum is 0.61 (0.10) % id/g and the “Pre-frontal cortex: thalmus” value is reported as 1.51. In data set [2] (30 min post-injection), the Cerebellum is given as 0.59 (0.06) % id/g, the Hippocampus is reported as 0.75 (0.03) % id/g, the Pons/Medulla is 0.52 (0.05) % id/g and the Pre-frontal cortex is 0.75 (0.06) % id/g. In data set [2] (30 min post-injection), the Striatum is 0.55 (0.096) % id/g and the “Pre-frontal cortex: thalmus” value was determined as 1.23. For the same compound, in data set [2] (60 min post-injection), the Cerebellum is 0.47 (0.02) % id/g, the Hippocampus is reported as 0.53 (0.01) % id/g, the Pons/Medulla is 0.45 (0.02) % id/g and the Pre-frontal cortex is reported as 0.51 (0.03) % id/g. For the same compound, in data set [2] (60 min post-injection), the Striatum is recorded as 0.45 (0.02) % id/g and the “Pre-frontal cortex: thalmus” value amounted to 1.05.
For the compound `CCOC(=O)c1ncn2c1CN(CC[18F])C(=O)c1cc(F)ccc1-2` [[18F]FEFMZ, [18F]fluoroethylflumazenil], the “Clearance following administration in vivo” value in data set [1] (in vivo) is “too rapid”.
As to `CCOC(=O)c1ncn2c1CN(C)C(=O)c1cc(OCC[18F])ccc1-2` [[18F]-Compound 1], in data set [2], the “Time at which regional differentiation remained apparent” value was 30 minutes pi; the “Time of peak whole brain uptake” value was 10 minutes pi; the “Whole brain uptake, peak” value is recorded as 0.9%; the “Clearance from whole brain after peak uptake” value is “slow with a decreasing rate”. The “Regional differentiation between GABA-rich and GABA-poor regions of the brain” value in data set [2] is on record as “good”. Further, in data set [2] (0.5 min), the Pituitary gland was 0.60 (0.1) % id/g and the Thalamus is listed as 0.30 (0.11) % id/g. In data set [2] (2 min), the Pituitary gland is on record as 0.69 (0.13) % id/g and the Thalamus is reported as 0.47 (0.07) % id/g. For the same compound, in data set [2] (10 min), the Pituitary gland is on record as 0.55 (0.10) % id/g and the Thalamus is listed as 0.39 (0.05) % id/g. For the same compound, in data set [2] (30 min), the Pituitary gland is 0.30 (0.02) % id/g and the Thalamus is listed as 0.24 (0.05) % id/g. In data set [2] (60 min), the Pituitary gland is 0.26 (0.08) % id/g and the Thalamus was 0.20 (0.07) % id/g. Besides, in data set [2] (0.5 min post-injection), the Cerebellum is listed as 0.28 (0.06) % id/g, the Hippocampus was 0.26 (0.08) % id/g, the Pons/Medulla was 0.23 (0.04) % id/g and the Pre-frontal cortex is 0.33 (0.1) % id/g. In data set [2] (0.5 min post-injection), the Striatum is 0.26 (0.07) % id/g and the “Pre-frontal cortex: thalmus” value turned out to be 1.13. Also, in data set [2] (2 min post-injection), the Cerebellum is on record as 0.43 (0.03) % id/g, the Hippocampus is given as 0.43 (0.06) % id/g, the Pons/Medulla is 0.34 (0.02) % id/g and the Pre-frontal cortex is on record as 0.57 (0.02) % id/g. Moreover, in data set [2] (2 min post-injection), the Striatum is 0.41 (0.04) % id/g and the “Pre-frontal cortex: thalmus” value was 1.23. Also, in data set [2] (10 min post-injection), the Cerebellum is recorded as 0.36 (0.05) % id/g, the Hippocampus is listed as 0.43 (0.07) % id/g, the Pons/Medulla is 0.28 (0.05) % id/g and the Pre-frontal cortex is 0.53 (0.09) % id/g. Besides, in data set [2] (10 min post-injection), the Striatum is recorded as 0.36 (0.04) % id/g and the “Pre-frontal cortex: thalmus” value came out at 1.35. In addition, in data set [2] (30 min post-injection), the Cerebellum is listed as 0.23 (0.04) % id/g, the Hippocampus is 0.32 (0.05) % id/g, the Pons/Medulla is 0.18 (0.04) % id/g and the Pre-frontal cortex is 0.35 (0.07) % id/g. In addition, in data set [2] (30 min post-injection), the Striatum is 0.21 (0.04) % id/g and the “Pre-frontal cortex: thalmus” value came to 1.44. In data set [2] (60 min post-injection), the Cerebellum is recorded as 0.20 (0.05) % id/g, the Hippocampus was 0.26 (0.07) % id/g, the Pons/Medulla was 0.19 (0.05) % id/g and the Pre-frontal cortex is on record as 0.24 (0.06) % id/g. In data set [2] (60 min post-injection), the Striatum was 0.18 (0.04) % id/g and the “Pre-frontal cortex: thalmus” value is recorded as 1.21.
